Test results taken from patent publication US3968214A, “5-Methylthio-pyrimidine vasodilators” (Produits Chimiques Ugine Kuhlmann, priority 1973, dated 1976).
Read-outs that look alike come from different tables or passages of the source.

Columns and labels:
[1] = test system: isolated duodenum of rabbit, contractions caused by acetylcholine; assay: Spasmolytic activity, neurotrope versus acetylcholine, isolated duodenum (Magnus)
Description: (§1) The spasmolytic activities are known by means of the technique of R. Magnus (Arch. Ges. Physiol., 1904, 102, 123) on the isolated duodenum of rabbits. The spasmolytic neurotropes inhibit the contractions of the organ caused by acetylcholine, while the musculotropes prevent the spasms induced by barium chloride. The EC 50 expressed in mg/litre are collected in the following Table where EC denotes "Effective concentration".

[2] = test system: abdominal spasms caused in mice by 2-phenyl-1,4-benzoquinone; assay: Analgesic activity: abdominal spasms caused by intraperitoneal 2-phenyl-1,4-benzoquinone (P.B.Q.); assay type: in vivo; conditions: for ED50: Mus musculus, mice, oral, read-out: Analgesic activity P.B.Q. AD 50
Description: (§2) The analgesic activities have been investigated with respect to abdominal spasms caused in mice by the intraperitoneal injection of 2-phenyl-1,4-benzoquinone according to E. Siegmund, E. Cadmus and G. Lu, Proc. Soc. exp. Biol. Med., 1957, 95, 729-731. The central antiserotonin properties have been determined by the "Head-twitch" technique in mice according to S. J. Corne, R. W. Pickering and B. T. Warner, Brit. J. Pharmacol., 1963, 20, 106-120. In this test, the antiserotonin products inhibit the sudden shaking of the head induced in mice by 5-hydroxy-tryptophan, the biological precursor of serotonin.

[3] = Acute toxicity in mice, intravenous and oral (LD50); assay type: in vivo; conditions: mouse, in vivo
Description: The acute toxicities of the compounds according to the invention have been determined CD 1 mice (Charles RIVER) by intravenous and oral methods. The LD50 calculated by the quantal cumulative method of J. J. Reed and H. Muench (Amer. J. Hyg. 1938, 27, 493) are collected in the following Table: […]

[4] = test system: serotonin (shaking of the head induced by 5-hydroxy-tryptophan); assay: Central antiserotonin activity: Head-twitch induced by 5-hydroxy-tryptophan; assay type: in vivo, mice; conditions: for ED50: Mus musculus, mice, oral, read-out: Antiserotonin activity Head-twitch AD 50; for central antiserotonin activity (in words): given orally to mice
Description: as §2, with “Biol. Med., 1957, 95, 729-731.” left out, “J. Pharmacol., 1963, 20, 106-120.” left out

[5] = test system: isolated duodenum of rabbit, spasms induced by barium chloride; assay: Spasmolytic activity, musculotrope versus BaCl2, isolated duodenum (Magnus)
Description: as §1

isolated rabbit heart = assay: Coronaro-dilatatory activity, isolated heart (Langendorff modified by Anderson); conditions: for coronaro-dilatatory activity (in words): isolated rabbit heart
Description: The technique of Langendorff, modified by F. E. Anderson, (J. Pharmacol. exp. Therap., 1948, 91, 135) using isolated rabbit heart permits the coronaro-dilatatory activity of the products to be studied. In this text, the cardiac perfusion liquid contains 0.5 UI/1 of posthypophysis. The results are expressed in the percentage variation of the coronary flow after affusion of the product to be tested, compared with the initial flow.

glycemia = assay: Hypoglycemiant activity, variation of glycemia after 4 days of daily oral treatment; assay type: in vivo, male CD rats (Charles RIVER); conditions: rat
Protocol: The hypoglycemiant properties have been studied on the male CD rats (Charles RIVER) weighing 200 to 250 g, in which the glycemia is controlled before treatment and then after 4 days of daily oral treatment. The seric glucose is determined by the method of W. S. Hoffmann (J. Biol. Chem., 1937, 120, 51). Groups of 10 rats are used and the hypoglycemiant activity is expressed by the percentage variation of the average glycemia of the treated animals with respect to that of the controls. If it is necessary, the statistical significance of the difference is determined by the test of the coefficient "t" of Student.

[6] = intravenous, read-out: Acute toxicity to mice LD 50, intravenous
[7] = oral, read-out: Acute toxicity to mice LD 50, orally

Row | Structure (SMILES) | Spasmolytic activity EC 50, neurotrope versus acetylcholine [1] | ED50 [2] | LD50 [3, 6] | LD50 [3, 7] | ED50 [4] | central antiserotonin activity (in words) [4] | Spasmolytic activity EC 50, musculotrope versus BaCl2 [5] | Increase of the coronary flow (isolated rabbit heart; dose 0.01 mg) | Increase of the coronary flow (isolated rabbit heart; dose 0.03 mg) | Increase of the coronary flow (isolated rabbit heart; dose 0.10 mg) | Increase of the coronary flow (isolated rabbit heart; dose 0.30 mg) | coronaro-dilatatory activity (in words) (isolated rabbit heart) | hypoglycemiant properties (in words) (glycemia) | analgesic activity (in words) ([2]; given orally to mice) | Increase of the coronary flow (isolated rabbit heart; dose 0.003 mg) | neurotropic spasmolytic activity (in words) [1]
1 | CCN(CC)CCNc1nc(N(C)c2ccccc2)nc(Cl)c1SC [Example 2, 2-N-methyl-N-phenylamino-4-(2'-diethylamino)-ethylamino-5-methylthio-6-chloro-pyrimidine] | 1.50 µg/mL | > 100 mg/kg | 43 mg/kg | 225 mg/kg | 95 mg/kg | central antiserotonine | 0.80 µg/mL | 56% | 58% | 64% | 91% | interesting coronaro-dilatatory activities | – | – | – | –
2 | CCN(CC)CCNc1nc(N(CC)CC)nc(Cl)c1SC [Example 3, 2-diethylamino-4-(2'-diethylamino)-ethyl-amino-5-methylthio-6-chloro-pyrimidine] | 1.30 µg/mL | > 100 mg/kg | 64 mg/kg | 225 mg/kg | 35 mg/kg | central antiserotonine | 0.30 µg/mL | – | – | – | – | – | – | – | – | –
3 | CCN(CC)CCNc1nc(N(C)c2ccc(Cl)cc2)nc(Cl)c1SC [Example 6, 2-N-methyl-2-N-(4-chloro-phenyl)amino-4-(2'-diethylamino)-ethylamino-5-methylthio-6-chloro-pyrimidine] | – | – | – | 610 mg/kg | 65 mg/kg | central antiserotonine | – | – | – | – | – | – | strong hypoglycemiant properties | – | – | –
4 | CSc1c(Cl)nc(N(C)c2ccccc2)nc1NCCN(C(C)C)C(C)C [Example 12, 2-N-methyl-N-phenylamino-4-(2'-di-isopropyl-amino)-ethylamino-5-methylthio-6-chloro-pyrimidine] | – | 100 mg/kg | – | 600 mg/kg | – | – | – | – | – | – | – | – | strong hypoglycemiant properties | – | – | –
5 | CSc1c(Cl)nc(N2CCCCC2)nc1NCCN(C(C)C)C(C)C [Example 13, 2-piperidino-4-(2'-diisopropylamino)-ethylamino-5-methylthio-6-chloro-pyrimidine] | – | – | – | > 900 mg/kg | 185 mg/kg | – | – | – | – | – | – | – | strong hypoglycemiant properties | – | – | –
6 | CCN(CC)c1nc(Cl)c(SC)c(NCCN(C(C)C)C(C)C)n1 [Example 16, 2-diethylamino-4-(2'-diisopropylamino)-ethylamino-5-methylthio-6-chloro-pyrimidine] | – | 70 mg/kg | – | 600 mg/kg | 90 mg/kg | central antiserotonine | 0.30 µg/mL | 52% | – | – | – | interesting coronaro-dilatatory activities | – | marked analgesic activity | 16% | –
7 | CSc1c(Cl)nc(N(C)c2cccc(C(F)(F)F)c2)nc1NCCN(C(C)C)C(C)C [Example 17, 2-N-methyl-N(3-trifluoromethyl-phenyl)-amino-4-(2'-diisopropylamino)-ethylamino-5-methylthio-6-chloro-pyrimidine] | – | – | – | > 900 mg/kg | 400 mg/kg | – | 0.50 µg/mL | – | – | – | – | – | strong hypoglycemiant properties | – | – | –
8 | COc1nc(N(C)c2ccccc2)nc(NCCN(C(C)C)C(C)C)c1SC [Example 24, 2-N-methyl-N,phenylamino-4-(2'-diisopropylamino)-ethylamino-5-methyl-thio-6-methoxy-pyrimidine] | 0.12 µg/mL | – | 22 mg/kg | 600 mg/kg | – | – | 0.13 µg/mL | 32% | 58% | 67% | – | interesting coronaro-dilatatory activities | strong hypoglycemiant properties | – | 26% | necessary to call attention
